As usually defined, the ΔTm is the change in melting temperature against a reference sample.

The source of these data is ChEMBL document CHEMBL1136351, “Synthesis and DNA-binding affinity of A-C8/C-C2 alkoxyamido-linked pyrrolo[2,1-c][1,4]benzodiazepine dimers” (Bioorg Med Chem Lett, 2003).

Holding throughout (assay type): functional
Holding throughout (details): Bos taurus

Experiment [1] deals with Nucleic Acid. In words: Thermal denaturation in calf thymus DNA after incubation at 37 degrees C for 0h at PBD/DNA 1:5 molar ratio.
Experiment [2] deals with Nucleic Acid. In words: Thermal denaturation in calf thymus DNA after incubation at 37 degrees C for 18 hr at PBD/DNA 1:5 molar ratio.
Experiment [3] has as its system Nucleic Acid. In words: Thermal denaturation in calf thymus DNA after incubation at 37 degrees C Centigrade for 18 hr at PBD/DNA 1:5 molar ratio.
Experiment [4] concerns Nucleic Acid. In words: Thermal denaturation in calf thymus DNA after incubation at 37 degree C for 18 hr at PBD/DNA 1:5 molar ratio.

On to `COc1cc2c(cc1OCCCCC(=O)N[C@H]1C[C@H]3C=Nc4cc(OCc5ccccc5)c(OC)cc4C(=O)N3C1)N=C[C@@H]1CCCN1C2=O`, for which the ΔTm worked out at 6.1 °C in the experiment on Nucleic Acid [1] and 10.9 °C in the experiment on Nucleic Acid [2].
Taken in the same sequence, the figures for `COc1cc2c(cc1OCCCC(=O)N[C@H]1C[C@H]3C=Nc4cc(OCc5ccccc5)c(OC)cc4C(=O)N3C1)N=C[C@@H]1CCCN1C2=O` were 3.7 °C and 9.3 °C.
Take `COc1cc2c(cc1OCC(=O)N[C@H]1C[C@H]3C=Nc4cc(OCc5ccccc5)c(OC)cc4C(=O)N3C1)N=C[C@@H]1CCCN1C2=O`: the ΔTm in the experiment on Nucleic Acid [1] was determined as 0.9 °C; with Nucleic Acid [3], 4.7 °C.
With `COc1cc2c(cc1O)N=C[C@@H]1CCCN1C2=O`, the ΔTm with Nucleic Acid [1] stood at 0.3 °C; in the experiment on Nucleic Acid [4] it was 0.7 °C.
